Assays:
[1] = test system: human peripheral blood monocytes; assay: IL-6 production inhibitory effect of BAFF from human peripheral blood monocytes (Example 3); type: cell-based; settings: for IL-6 production inhibitory effect compared with the control: 4 days
Procedure: Monocytes were isolated from normal healthy human peripheral blood using CD14-microbeads. In the presence of 2 μg/mL recombinant human BAFF (same as Example 2) and Compound A (2 μM and 10 μM) (entire culture scale of 24-well culture plates at 2 mL/well), 5×10^5 of the isolated monocytes were cultured using a 10% FBS/RPMI 1640 culture medium in a 5% CO2 environment at 37° C. for four days. Four days later, the supernatant was removed to determine the IL-6 content in the culture supernatant by IL-6 specific ELISA. For comparison, experiments using BIK-13 instead of Compound A were also performed.

[2] = test system: peripheral blood mononuclear cells (PBMC); assay: IgG production by B cell-stimulation culture using peripheral blood mononuclear cells (Example 5); type: cell-based, human; settings: 7 days (results not shown)
Procedure: Peripheral blood mononuclear cells were isolated from normal healthy human peripheral blood by density gradient centrifugation using Ficoll. In the presence of 5 μg/mL anti-human IgM antibody, 1 μg/mL anti-human CD40 antibody, 30 ng/mL recombinant human IL-21, 30 ng/mL recombinant human BAFF, and Compound A (0.4 μM, 2 μM, and 10 μM), 2×10^5 peripheral blood mononuclear cells were cultured using a 10% FBS/RPMI 1640 culture medium in a 5% CO2 environment at 37° C. for seven days. The cells were cultured in 96-well round-bottom culture plates in a scale of 200 μL per well. Seven days later, the supernatant was removed and the culture supernatant was collected to determine the IgG content in the culture supernatant by ELISA. As controls, experiments in the case of not adding Compound A and the case of adding neither Compound A nor BAFF were also performed. Moreover, for comparison with the effects of Compound A, experiments using BIK-13 instead of Compound A were also performed.

[3] = test system: peripheral blood monocytes and B cells from Sjögren syndrome patients; assay: IgG production in coculture of BAFF-stimulated peripheral blood monocytes and B cells (Example 4); type: cell-based, human; settings: for IL-6 production inhibitory effect compared with the control: 4 days
Procedure: Monocytes were isolated from Sjögren syndrome patient peripheral blood using CD14 microbeads, and B cells were isolated from the peripheral blood using CD19 microbeads. Using Transwell® culture plates, 2×10^5 monocytes per well were seeded in the upper plate and 1×10^5 B cells in the lower plate to be cultured in the presence of 2 μg/mL recombinant human BAFF (same as Example 2) and Compound A (1 μM and 10 μM) using a 10% FBS/RPMI 1640 culture medium in a 5% CO2 environment at 37° C. for four days (coculture of the peripheral blood monocytes and the B cells via a membrane). Four days later, the supernatant was removed and the culture supernatant was collected to determine the IgG content in the culture supernatant by ELISA. As controls, experiments in the case of not adding Compound A and the case of adding neither Compound A nor BAFF were also performed. Moreover, for comparison with the effects of Compound A, experiments using BIK-13 instead of Compound A were also performed.

[4] = test system: human monocytic cell line THP-1; assay: IL-6 production inhibitory effect of BAFF in IFNγ-precultured THP-1 cells (Example 2); type: cell-based; settings: for relative amount of IL-6 production: 30 μM, control (BAFF only) = 100%
Procedure: In 24-well plates (manufactured by Corning Inc.) in a RPMI-1640 culture medium (produced by ATCC) containing 10% fetal bovine serum (produced by JRH Biosciences), 5×10^5 cells of human monocytic leukemia cell line THP-1 (obtained from a bioresource bank, Japanese Collection of Research Bioresource) were seeded per well. IFNγ (interferon γ, produced by BD Pharmingen) was added to a final concentration of 200 ng/mL and cultured in a 5% CO2 environment at 37° C. After four days of culture, the culture broth in each well was removed and the cells were washed twice with the culture medium, followed by addition of the culture medium containing a final concentration of 2 μg/mL of recombinant human soluble BAFF (produced by Chemicon), and respective test compounds were added to a final concentration of 20 μM or 2 μM to continue the culture in the same conditions. After three days of culture, the culture supernatant was collected to determine the IL-6 content in the supernatant by ELISA. For ELISA, mouse anti-human IL-6 antibody (produced by BD Pharmingen), biotin-labeled anti-human IL-6 antibody (produced by BD Pharmingen), and HRP-labeled streptavidin (produced by BD Pharmingen) were used. The test compound groups were used by purchasing from Asinex. In the test system, Compound 27 (BIK-13) in PTL 1 was used as a positive control (compound with inhibitory action on IL-6 production by monocytic cells). BIK-13 was the same as the compound of ADM 12880656 by Asinex Japan Inc.
In the presence of 200 ng/mL recombinant human IFNγ (same as Example 1) (entire culture scale of 24-well culture plates at 2 mL/well), 5×10^5 cells of human monocytic cell line THP-1 (same as Example 1) were cultured using a 10% FBS/RPMI 1640 culture medium in a 5% CO2 environment at 37° C. for four days (96 hours). Four days later, an operation of removing the supernatant, adding a new medium, leaving it still in an incubator, and removing the supernatant was repeated twice. After removing the supernatant, recombinant human BAFF (2 μg/mL) was dissolved together with Compound A (ADM 12880492, Asinex Japan Inc.) or Compound B (ADM 12880696, Asinex Japan Inc.) in a medium and added to the culture wells to be cultured for three days. Three days later, the culture supernatant was collected to determine the IL-6 content in the culture supernatant by IL-6 specific ELISA. As a control, instead of Compound A or Compound B, BIK-13 was used.

Structure (SMILES) | IL-6 production inhibitory effect compared with the control ([1]; 2 μM with 2 μg/mL human BAFF) | IL-6 production inhibitory effect compared with the control ([1]; 10 μM with 2 μg/mL human BAFF) | relative amount of IL-6 production ([1]; 10 μM, control = 100%) [%] | IL-6 production inhibitory effect compared with the control ([2]; 0.4 μM and 2 μM) | IL-6 production inhibitory effect compared with the control ([2]; 10 μM) | IL-6 production inhibitory effect compared with the control ([3]; 1 μM with 2 μg/mL human BAFF) | IL-6 production inhibitory effect compared with the control ([3]; 10 μM with 2 μg/mL human BAFF) | cancellation of the IgG antibody production enhancement by BAFF ([3]; 10 μM, compared with adding neither compound nor BAFF) | IL-6 production inhibitory effect compared with adding no compound ([4]; 1.2 μM with 2 μg/mL human BAFF, 3 days) | IL-6 production inhibitory effect compared with adding no compound ([4]; 6 μM and 30 μM with 2 μg/mL human BAFF, 3 days) | relative amount of IL-6 production [4] | IL-6 production inhibitory effect compared with the control ([4]; 0.04 μM, 0.2 μM and 1 μM together with 2 μg/mL human BAFF, 3 days, ELISA) | IL-6 production inhibitory effect compared with BIK-13 ([4]; THP-1 system of Example 2)
Cc1c(C)n(C2CCCC2)c2ncnc(OC3CCN(C(=O)CN4CCCC4=O)CC3)c12 [BIK-13, reference compound] | no significant difference | significant (p<0.05) IL-6 production inhibitory effect | 80.2±14.5 | no significant difference | significant (p<0.01) IL-6 production inhibitory effect | no significant difference | significant (p<0.01) IL-6 production inhibitory effect | not completely cancelled | no significant difference | significant (p<0.001) IL-6 production inhibitory effects | 52.8±2.2% | – | –
Cc1c(C)n(C2CCCC2)c2ncnc(OC3CCN(CCC#N)CC3)c12 [Compound B, 3-[4-{(7-cyclopentyl-5,6-dimethyl-7H-pyrrolo[2,3-d]pyrimidin-4-yl)oxy}piperidin-1-yl]propanenitrile] | – | – | – | – | – | – | – | – | – | – | below 50% | significant (p<0.001) IL-6 production inhibitory effects | stronger IL-6 production inhibitory effect than BIK-13

From patent US12115161B2, “Prophylactic and/or therapeutic agent for inflammatory diseases which contains pyrrolopyrimidine compound as active ingredient” (KEIO UNIVERSITY, priority 2018, dated 2024)
